# Experimental data published in patent publication US4622336A, “3,3-dialkyl-and 3,3-alkylene-indoline derivatives, processes for their production and pharmaceutical compositions comprising them” (Sandoz Ltd., priority 1982, dated 1986).
# Experiments:
# inflamed rat-hind-paw = assay: Randall-Selitto test on the inflamed rat-hind-paw (Test B); format: in vivo; settings: po
# Method: (B) the Randall-Selitto test on the inflamed rat-hind-paw [Arch. Int. Pharmacodyn. 61, 409-419 (1957)] at dosages of from 20 to 200 mg/kg p.o..
# [1] = tested on: arthritis pain in the rat; assay: arthritis pain test in the rat (Test A); format: in vivo; settings: po
# Method: (A) the arthritis pain test in the rat [based on the method of A. W. Pircio et al., Eur. J. Pharmacol., 31, 207-215 (1975)] at dosages of from 3 to 50 mg/kg p.o.; and […]
Structure (SMILES),ED50 (inflamed rat-hind-paw) [mg/kg],ED50 [1] [mg/kg]
"CCOc1ccc2c(c1)C(C)(C)CN2 [I, 3,3-Dimethyl-5-ethoxy-indoline]",133,18
"CCOc1ccc2c(c1)NCC2(C)C [II, 3,3-Dimethyl-6-ethoxy-indoline]",78,7
"CC(=O)Nc1ccc(O)cc1 [III, Paracetamol, reference compound]",–,174
